Legend:
Strep/HA SLC9A2 = target: T1, Strep/HA SLC9A2 (Homo sapiens, UniProt Q9UBY0); experiment: Selectivity across SLC9 family: degradation of exogenous Strep/HA SLC9A2; type: cell-based; conditions: HAP1; 250 or 750 nM; 16 hours
T1 construct: expressed in transfected cells; host or cells: HAP1 (lentiviral, pRRL Strep-HA; cDNA synthesized by Genescript)
Protocol: (§1) (E) Selectivity of d9A1-2 was tested across HAP1 cell lines expressing Strep/HASLC9A1, 9A4, 9A5, 9A8, 9A2, 9B2, 9A6, 9A9, and 9A3. Cells were treated with varying concentrations of d9A1-2 for 16 hours, after which degradation of the exogenous SLCs was monitored.
(§2) SLC1A5, SLC2A1, SLC2A3, SLC16A1, SLC38A1, SLC38A2 were obtained as gateway-compatible pENTR/pDONR vectors from the Harvard PlasmID Repository. SLC39A7 was obtained from Dharmacon, GE Healthcare. The following vectors were synthesized by Genescript: SLC4A4, SLC7A3, SLC38A9, SLC25A1, SLC9A1, SLC9A2, SLC9A3, SLC9A4, SLC9A5, SLC9A6, SLC9A7, SLC9A8, and SLC9B2. SLC30A9, SLC33A1, SLC35B2, SLC25A26, and MTCH2 were a gift from the RESOLUTE consortium. cDNAs were transferred into gateway-compatible lentiviral expression vectors: pLX305 dTAG vectors (Addgene #91797/8) or pRRL Strep-HA (described previously43, EF1a promotor driven expression) using LR recombination (ThermoFisher Scientific). […]
(§3) For immunoblotting, whole cell extracts were prepared using RIPA lysis buffer (25 mM Tris/HCl pH 7.6, 150 mM NaCl, 1% NP-40, 1% sodium deoxycholate, 0.1% SDS, EDTA-free protease inhibitor (Roche) and phosphatase inhibitors 2+3 (Sigma- Aldrich)). […] Protein extracts were quantified and normalized using the BCA assay (Thermo Scientific). […]

Strep/HA SLC9A4 = target: T2, Strep/HA SLC9A4 (Homo sapiens, UniProt Q6AI14); experiment: Selectivity across SLC9 family: degradation of exogenous Strep/HA SLC9A4; type: cell-based; conditions: HAP1; 250 or 750 nM; 16 hours
T2 construct: expressed in transfected cells; host or cells: HAP1 (lentiviral, pRRL Strep-HA; cDNA synthesized by Genescript)
Protocol: as §1, §2, §3

Strep/HA SLC9A6 = target: T3, Strep/HA SLC9A6 (Homo sapiens, UniProt Q92581); experiment: Selectivity across SLC9 family: degradation of exogenous Strep/HA SLC9A6; type: cell-based; conditions: HAP1; 250 or 750 nM; 16 hours
T3 construct: expressed in transfected cells; host or cells: HAP1 (lentiviral, pRRL Strep-HA; cDNA synthesized by Genescript)
Protocol: as §1, §2, §3

[1] = system: Peripheral blood mononuclear cells (PBMCs); experiment: Cellular viability assay (CellTiter-Glo), dose curve, FIG. 9; type: cell-based, human; conditions: PBMCs of healthy donors and patients (AML, multiple myeloma, B cell lymphoma, Hodgkin's lymphoma, CLL), 72 hours
Protocol: Relative viability of Peripheral blood mononuclear cells (PBMCs) after treatment with the d9A1-2 molecule PBMCs were isolated from healthy donors and patients with acute myeloid leukemia, multiple myeloma, B cell lymphoma and Hodgkin’s lymphoma, chronic lymphocytic leukeumia and treated with a dose curve of d9A1-2. Viability was assayed using the CellTiter-Glo assay, 72 hours post treatment.
Peripheral blood mononuclear cells (PBMCs) were isolated using Lymphoprep (Stem Cell Technologies) from healthy donors and patients with acute myeloid leukemia, multiple myeloma, B cell lymphoma, Hodgkin’s lymphoma, chronic lymphocytic leukeumia. For comparison of different samples, compounds were transferred on black 384-well plates using an acoustic liquid handler (Echo, Labcyte). Cells were seeded in these plates at densities of 20,000 cells per well in RPMI media (Gibco), supplemented with 10% fetal calf serum (Gibco). Viability was measured after 72 hours using the CellTiter-Glo assay (Promega) on a plate reader (SpectraMax i3x, Molecular Probes). All measurements were done in technical quadruplicates. Toxicity achieved by treatment with d9A1-2 was normalized to the reference controls. Dose response fitting curves were obtained and plotted using GraphPad Prism V8. Data is presented as mean +/- SD.

dTAG-HA SLC30A9 = target: T4, dTAG-HA SLC30A9 (Homo sapiens, UniProt Q6PML9+Q96SW2); experiment: Targeted degradation of dTAG-tagged SLC30A9 (western blot); type: cell-based; conditions: HAP1, 0.5 µM
T4 construct: expressed in transfected cells
Protocol: (§4) (C)HAP1 cells expressing dTAG-HA SLC1A5, 2A3, 30A9, 35B2, MTCH2, and 33A1 were treated for 24 hours with 0.5 µM of dTAG7 or dTAG13, as indicated. HAP1 cells expressing dTAG-HA SLC2A1 and 16A1 were treated for 24 hrs with 0.5 µM of dTAG7. HAP1 cell lines expressing dTAG-HA SLC39A7, dTAG-HA SLC4A4, and SLC7A3-dTAG-HA were treated for 48 hrs with 0.5 µM of dTAG13.
(§5) SLC1A5, SLC2A1, SLC2A3, SLC16A1, SLC38A1, SLC38A2 were obtained as gateway-compatible pENTR/pDONR vectors from the Harvard PlasmID Repository. SLC39A7 was obtained from Dharmacon, GE Healthcare. The following vectors were synthesized by Genescript: SLC4A4, SLC7A3, SLC38A9, SLC25A1, SLC9A1, SLC9A2, SLC9A3, SLC9A4, SLC9A5, SLC9A6, SLC9A7, SLC9A8, and SLC9B2. […]
as §3
(§6) SLCs were ectopically expressed as fusions to a mutated FKBP domain, also known as the dTAG system. […]

dTAG-HA SLC35B2 = target: T5, dTAG-HA SLC35B2 (Homo sapiens, UniProt Q8TB61+Q96SW2); experiment: Targeted degradation of dTAG-tagged SLC35B2 (western blot); type: cell-based; conditions: HAP1, 0.5 µM, 24, 48 or 72 hours
T5 construct: expressed in transfected cells
Protocol: as §4, §5, §3, §6

T1 sequence (Q9UBY0 whole entry): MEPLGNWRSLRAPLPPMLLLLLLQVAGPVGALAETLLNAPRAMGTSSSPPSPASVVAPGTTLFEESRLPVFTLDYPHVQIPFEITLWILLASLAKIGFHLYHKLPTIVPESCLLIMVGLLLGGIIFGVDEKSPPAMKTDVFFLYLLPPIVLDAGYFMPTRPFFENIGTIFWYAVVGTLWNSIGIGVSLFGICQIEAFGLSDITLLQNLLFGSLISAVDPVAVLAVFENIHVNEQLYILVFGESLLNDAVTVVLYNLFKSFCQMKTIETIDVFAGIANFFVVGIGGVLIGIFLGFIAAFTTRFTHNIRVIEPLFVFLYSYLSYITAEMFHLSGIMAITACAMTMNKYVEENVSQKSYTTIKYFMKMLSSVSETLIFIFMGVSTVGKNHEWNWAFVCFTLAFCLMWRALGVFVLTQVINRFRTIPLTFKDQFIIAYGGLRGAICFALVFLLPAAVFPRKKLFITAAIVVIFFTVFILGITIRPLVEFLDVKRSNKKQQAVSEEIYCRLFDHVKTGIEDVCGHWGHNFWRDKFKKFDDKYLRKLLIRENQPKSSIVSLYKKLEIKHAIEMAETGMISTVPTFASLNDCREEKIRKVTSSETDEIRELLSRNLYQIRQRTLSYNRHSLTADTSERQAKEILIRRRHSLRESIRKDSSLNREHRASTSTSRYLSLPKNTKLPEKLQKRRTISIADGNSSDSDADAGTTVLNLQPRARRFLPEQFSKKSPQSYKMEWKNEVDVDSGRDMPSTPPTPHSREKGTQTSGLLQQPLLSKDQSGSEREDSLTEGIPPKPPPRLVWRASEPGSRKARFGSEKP
T3 sequence (Q92581 1-669 isoform Q92581-1): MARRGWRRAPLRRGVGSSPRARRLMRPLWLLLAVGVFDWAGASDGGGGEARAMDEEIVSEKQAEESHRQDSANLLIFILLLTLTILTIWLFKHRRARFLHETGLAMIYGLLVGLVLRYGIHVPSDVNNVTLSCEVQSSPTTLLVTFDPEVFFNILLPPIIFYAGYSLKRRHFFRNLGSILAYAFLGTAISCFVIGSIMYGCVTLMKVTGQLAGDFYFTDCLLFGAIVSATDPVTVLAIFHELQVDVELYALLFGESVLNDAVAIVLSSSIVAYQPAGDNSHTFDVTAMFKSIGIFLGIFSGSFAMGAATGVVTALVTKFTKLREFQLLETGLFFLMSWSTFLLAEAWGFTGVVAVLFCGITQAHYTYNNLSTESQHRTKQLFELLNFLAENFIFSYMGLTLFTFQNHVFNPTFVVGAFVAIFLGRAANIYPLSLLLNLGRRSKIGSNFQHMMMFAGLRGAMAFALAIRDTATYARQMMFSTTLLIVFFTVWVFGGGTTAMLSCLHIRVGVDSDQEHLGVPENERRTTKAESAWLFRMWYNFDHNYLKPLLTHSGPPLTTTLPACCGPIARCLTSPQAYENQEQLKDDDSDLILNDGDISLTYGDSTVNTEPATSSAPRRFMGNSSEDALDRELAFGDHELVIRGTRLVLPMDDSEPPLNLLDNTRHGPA
T5 sequence (Q8TB61 with tags, fused parts or gaps): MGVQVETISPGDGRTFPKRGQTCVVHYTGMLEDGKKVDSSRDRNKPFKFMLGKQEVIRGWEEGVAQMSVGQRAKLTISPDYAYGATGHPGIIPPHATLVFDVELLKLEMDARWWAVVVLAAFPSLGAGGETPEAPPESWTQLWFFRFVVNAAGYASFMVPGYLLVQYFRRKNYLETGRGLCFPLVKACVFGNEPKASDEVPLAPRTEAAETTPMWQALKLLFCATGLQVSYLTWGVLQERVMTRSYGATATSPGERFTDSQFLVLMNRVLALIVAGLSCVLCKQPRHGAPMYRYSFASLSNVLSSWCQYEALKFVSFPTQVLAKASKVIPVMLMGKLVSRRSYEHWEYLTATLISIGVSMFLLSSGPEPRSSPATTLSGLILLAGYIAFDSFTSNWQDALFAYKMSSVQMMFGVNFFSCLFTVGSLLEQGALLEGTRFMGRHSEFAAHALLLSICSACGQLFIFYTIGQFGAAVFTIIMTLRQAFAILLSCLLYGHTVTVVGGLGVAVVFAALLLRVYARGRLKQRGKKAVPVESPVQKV
T5 sequence (Q96SW2 whole entry): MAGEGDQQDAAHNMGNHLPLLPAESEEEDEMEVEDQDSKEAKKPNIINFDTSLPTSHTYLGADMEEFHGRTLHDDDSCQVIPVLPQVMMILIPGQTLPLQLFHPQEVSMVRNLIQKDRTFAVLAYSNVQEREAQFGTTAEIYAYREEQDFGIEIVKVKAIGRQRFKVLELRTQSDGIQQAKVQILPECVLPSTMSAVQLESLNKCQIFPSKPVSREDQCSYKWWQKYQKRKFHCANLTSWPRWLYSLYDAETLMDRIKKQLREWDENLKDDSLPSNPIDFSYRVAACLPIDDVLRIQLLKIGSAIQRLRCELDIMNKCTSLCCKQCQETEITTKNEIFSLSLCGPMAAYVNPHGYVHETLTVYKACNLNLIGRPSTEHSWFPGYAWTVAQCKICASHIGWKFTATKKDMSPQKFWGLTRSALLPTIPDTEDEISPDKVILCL
T5 sequence (Q16531 whole entry partner): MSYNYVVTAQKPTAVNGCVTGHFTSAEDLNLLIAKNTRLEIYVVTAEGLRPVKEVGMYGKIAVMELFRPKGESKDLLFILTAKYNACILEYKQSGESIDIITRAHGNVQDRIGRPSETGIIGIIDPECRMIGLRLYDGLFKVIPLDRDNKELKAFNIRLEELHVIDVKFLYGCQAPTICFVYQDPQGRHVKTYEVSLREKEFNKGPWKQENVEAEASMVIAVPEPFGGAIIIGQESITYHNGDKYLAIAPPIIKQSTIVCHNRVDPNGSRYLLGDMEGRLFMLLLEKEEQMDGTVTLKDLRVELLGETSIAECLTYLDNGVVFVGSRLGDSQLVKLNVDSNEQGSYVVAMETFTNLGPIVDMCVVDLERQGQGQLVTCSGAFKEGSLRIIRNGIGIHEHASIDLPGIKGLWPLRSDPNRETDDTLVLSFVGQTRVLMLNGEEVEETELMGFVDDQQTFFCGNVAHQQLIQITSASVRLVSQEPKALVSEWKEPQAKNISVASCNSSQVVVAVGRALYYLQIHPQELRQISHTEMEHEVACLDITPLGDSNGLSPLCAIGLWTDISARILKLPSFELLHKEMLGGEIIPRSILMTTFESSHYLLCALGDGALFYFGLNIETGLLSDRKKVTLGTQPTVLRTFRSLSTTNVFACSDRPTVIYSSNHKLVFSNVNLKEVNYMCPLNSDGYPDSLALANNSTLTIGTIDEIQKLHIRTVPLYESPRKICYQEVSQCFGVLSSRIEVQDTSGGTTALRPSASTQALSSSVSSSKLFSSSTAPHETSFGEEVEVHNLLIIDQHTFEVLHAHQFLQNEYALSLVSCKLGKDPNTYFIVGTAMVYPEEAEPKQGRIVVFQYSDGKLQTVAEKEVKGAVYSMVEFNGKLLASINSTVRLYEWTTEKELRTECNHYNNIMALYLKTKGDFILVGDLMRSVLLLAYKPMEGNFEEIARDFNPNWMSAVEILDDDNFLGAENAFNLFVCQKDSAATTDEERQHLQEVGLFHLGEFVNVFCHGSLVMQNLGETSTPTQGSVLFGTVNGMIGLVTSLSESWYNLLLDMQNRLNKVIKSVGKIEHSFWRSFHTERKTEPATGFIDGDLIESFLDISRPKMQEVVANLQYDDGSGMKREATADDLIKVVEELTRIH
T4 sequence (Q6PML9 with tags, fused parts or gaps): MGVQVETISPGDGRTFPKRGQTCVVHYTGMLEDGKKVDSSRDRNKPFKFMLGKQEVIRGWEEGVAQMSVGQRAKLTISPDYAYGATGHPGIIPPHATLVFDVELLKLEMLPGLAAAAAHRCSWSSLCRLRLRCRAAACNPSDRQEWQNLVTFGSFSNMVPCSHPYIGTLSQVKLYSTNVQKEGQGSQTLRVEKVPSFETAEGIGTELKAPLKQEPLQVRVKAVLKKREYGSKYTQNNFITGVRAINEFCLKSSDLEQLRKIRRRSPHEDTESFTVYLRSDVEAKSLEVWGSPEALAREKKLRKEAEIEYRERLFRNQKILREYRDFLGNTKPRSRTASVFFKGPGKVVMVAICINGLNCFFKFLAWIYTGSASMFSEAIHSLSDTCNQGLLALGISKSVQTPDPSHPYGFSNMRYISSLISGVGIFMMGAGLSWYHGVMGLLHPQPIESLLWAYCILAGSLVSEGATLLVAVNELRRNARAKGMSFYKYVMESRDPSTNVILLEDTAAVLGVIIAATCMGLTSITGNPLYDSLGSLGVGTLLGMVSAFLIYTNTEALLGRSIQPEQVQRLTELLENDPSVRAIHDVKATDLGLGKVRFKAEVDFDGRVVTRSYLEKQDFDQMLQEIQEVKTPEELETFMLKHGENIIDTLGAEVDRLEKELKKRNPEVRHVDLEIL
T4 sequence (Q96SW2 whole entry): as the sequence (Q96SW2 whole entry) above
T4 sequence (Q16531 whole entry partner): as the sequence (Q16531 whole entry partner) above

Row | Structure (SMILES) | degradation of exogenous SLC9A2 (Strep/HA SLC9A2) | degradation of exogenous SLC9A4 (Strep/HA SLC9A4) | abundance of exogenous SLC9A6 (Strep/HA SLC9A6) | toxicity (relative viability) in patient versus healthy donor PBMCs [1] | initiation of degradation (time course) (dTAG-HA SLC30A9) | reversibility of degradation of the target SLC (dTAG-HA SLC35B2)
1 | Cc1cc(-c2ccc(C(=O)NCCOCCOCCOCCOCCNc3cccc4c3C(=O)N(C3CCC(=O)NC3=O)C4=O)cc2N2CCC(c3[nH]cnc3C)CC2)ccc1F (stereo not drawn) [d9A1-2] | prompted degradation | prompted degradation | not significantly affected | more toxic in patient samples, than in healthy donor samples |  | 
2 | CC[C@H](C(=O)N1CCCC[C@H]1C(=O)O[C@H](CCc1ccc(OC)c(OC)c1)c1ccccc1OCC(=O)NCCCOCCOCCOCCCNC(=O)COc1cccc2c1C(=O)N(C1CCC(=O)NC1=O)C2=O)c1cc(OC)c(OC)c(OC)c1 (stereo partly drawn) [dTAG7] |  |  |  |  | ≤ 6 h | reversible degradation

Source: patent US20230241226A1, “COMPOUNDS FOR TARGETED DEGRADATION OF CARRIER PROTEINS AND USES THEREOF” (CeMM - Forschungszentrum für Molekulare Medizin GmbH, priority 2019, published 2023)
